Measured values as given in BindingDB's records for doi:10.1021/jm00129a011 (Csiro Division of Chemicals and Polymers, 1989).

Target: Alpha-mannosidase (Canavalia ensiformis)
Test: Inhibitory activity against Mannosidase in jack bean (Canavalia ensiformis)

Structure (SMILES): C[C@@H](O)[C@H]1NC[C@@H](O)[C@H]1O
- IC50: 600 nM

Structure (SMILES): OC[C@@H](O)[C@H]1NC[C@@H](O)[C@H]1O
- IC50: 500 nM
